Tests used:
[1] = AlamarBlue cytotoxicity, BMDM; assay type: cell-based; settings: bone marrow-derived macrophages (BMDM)
Method: (§1) BMDM were generated in complete RPMI medium as described previously. On day six, the cytotoxicity against 2 × 10^5 cells/ml was tested at increasing concentrations of compounds 1 and 2 for 48 h. Human embryonic kidney HEK 293 T cells (ATCC, Wesel, Germany) were cultured in Dulbecco´s Modified Eagle Medium (DMEM) (Life Technologies, Darmstadt, Germany), with 10% FCS (PAA Laboratories, Germany). According to the standard operating procedures (SOP) within the Collaborative Research Center 630 (SFB 630) 2 × 10^4 HEK 293 T cells/ml were tested at increasing concentrations of compounds 1 and 2 for 48 h. Human liver carcinoma HepG2 cells (ATCC) were cultured in RPMI medium (Gibco) with 10% FCS. 1 × 10^5 cells/ml HepG2 were tested at increasing concentrations of 1 and 2 for 72 h according to the SOPs. The AlamarBlue assay was performed as described above for L. major parasites.

[2] = tested on: L. donovani; test: Preliminary studies in L. donovani infected BALB/c mice; assay type: in vivo; settings: need further evaluation
[3] = AlamarBlue cytotoxicity, HEK 293 T cells; assay type: cell-based; settings: human
Method: as §1

[4] = tested on: L. donovani promastigotes; test: MTT assay, L. donovani (AG83) promastigotes; assay type: cell-based; settings: Leishmania donovani, tested at 10, 50, 100 μM, read-out: Cytotoxicity (μM) L. donovani promastigotes (IC50)
Method: L. donovani promastigotes (strain: MHOM/IN/1983/AG83) were obtained from the Indian Institute of Chemical Biology, Kolkata, India. Promastigotes were cultured in Schneider’s insect medium (Sigma-Aldrich Co., St. Louis, USA) as described elsewhere.
Antiparasitic activities of compounds 1 and 2 dissolved in dimethyl sulfoxide (DMSO, E. Merck, India) against L. donovani (AG83) promastigotes were determined by a quantitative colorimetric assay using the 3-(4, 5- dimethylthiazol-2-yl)-2, 5-diphenyl tetrazolium bromide (MTT) (Sisco Research Laboratory, Mumbai, India) test as described elsewhere. The compounds were tested at concentrations of 10 μM, 50 μM, and 100 μM and IC50 values (concentration of compound, which inhibited at least 50% cell metabolic activity) for each compound were determined from respective dose–response curves using Origin 5.0 software (Microcal Software, Inc., Northampton, MA, USA).

[5] = AlamarBlue cytotoxicity, HepG2 cells; assay type: cell-based; settings: human, read-out: Cytotoxicity (μM) HEP G2
Method: as §1

[6] = tested on: L. major promastigotes; test: MitoTracker Red CMXRos staining, flow cytometry; assay type: cell-based, Leishmania major; settings: 100 μM
Method: L. major promastigotes were harvested from blood-agar cultures and washed twice with DPBS (900 × g for 5 min at RT). 2 × 10^6 promastigotes were dissolved in 180 μl RPMI complete medium and seeded in a 96 well plate. Parasites were incubated with 20 μL of compound 1 (final concentration: 100 μM), compound 2 (final concentration: 100 μM) and with 20 μL of DMSO, respectively, for 30 min, 45 min, 60 min, or 120 min at 27°C in a 5% CO2. After incubation 2 μl of MitoTracker Red CMXRos (final concentration: […]) (Life Technologies, Darmstadt, Germany) was added for 15 min at 27°C. Samples were directly acquired using a MACSQuant Analyzer (Miltenyi Biotech, Bergisch Gladbach, Germany) and MitoTracker-positive parasites were analyzed using MACS Quant Analyzing software.

[7] = tested on: L. major amastigotes; test: microbe, parasite or virus in culture; assay type: cell-based; settings: Leishmania major; intracellular amastigotes in BMDM, 24 h; read-out: Cytotoxicity (μM) L. major amastigotes (IC50)
Method: Luciferase-transgenic (Luc-tg) L. major has been generated as described previously. The virulence of Luc-tg L. major was maintained by passage in female BALB/c mice and promastigotes were grown in vitro in blood agar cultures with addition of 50 μg/mL hygromycin B using the same conditions as described above.
A detailed protocol of antileishmanial investigations against intracellular L. major amastigotes residing within bone marrow-derived macrophages (BMDM) is described elsewhere. Briefly, 2 × 10^5/ml BMDM were infected with Luc-tg L. major promastigotes at a ratio of 1:15 for 24 h. These infected BMDM were cultured in the absence or presence of increasing concentrations of the tested compounds 1 and 2 for 24 h prior to the supplement of Britelite plus (PerkinElmer, Waltham, MA, USA) for 5 min. Britelite plus is a very sensitive assay for the quantification of firefly luciferase in Leishmania parasites. The luminescence was measured using a Victor X Light 2030 luminometer (PerkinElmer, Waltham, MA, USA).

[8] = tested on: L. major promastigotes; test: Diff-Quik staining and transmitted light microscopy, cell morphology; assay type: cell-based, Leishmania major; settings: 100 μM
Method: L. major parasites harvested from blood agar cultures were washed twice with Dulbecco’s phosphate-buffered saline (DPBS; Invitrogen, Darmstadt, Germany) and centrifuged at 3.000 × g for 10 min. The pellet was suspended in RPMI 1640 medium at a final concentration of 1 × 10^8 cells/ml. Cells were treated with 1% DMSO, 122.7 μM miltefosine (1-hexadecylphorylcholine; apoptosis inducer), or 100 μM of the tested compounds 1 and 2 in a final volume of 200 μl in 96 well plates. Samples were incubated at 27°C in 5% CO2 for several time points between 30 min and 24 h. Transmitted light microscopic, transmission electron microscopic (TEM), and flow cytometric techniques were used to find phenotypic patterns caused by the treatment with the tested compounds.
After incubation for 30 min, 1 h, 2 h, 4 h, and 24 h in the presence of the tested compounds 1 and 2, promastigotes were harvested and centrifuged in a Cytospin 3 centrifuge (Shandon, Frankfurt, Germany) on microscope slides at 253 × g for 5 min at room temperature (RT). Cytospin preparations of cells were stained using the Differential Quick Stain (Diff-Quik) dye (Medion Diagnostics AG, Duedingen, Switzerland), according to the manufacturers’ protocol with some modifications. Diff-Quik stains the leishmanial nuclei and the kinetoplasts dark purple and the cytoplasm light purple allowing the observation of phenotypic changes within the parasite. Briefly, air-dried cells were fixed by dipping the slides 5 times for 3 seconds in fixative solution. Subsequently the slides were stained with Solution I following Solution II (from Diff-Quik kit) and air-dried between each staining steps. Finally, the samples were rapidly dipped once in ultra-pure water (produced by a TKA purification system apparatus, Niederelbert, Germany) to remove excessive staining solutions. The air-dried cells were analyzed by transmitted light microscopy under a 50× objective on a Nikon ECLIPSE 50i microscope equipped with a digital camera (Nikon, Tokyo, Japan). The images were processed using NIS Elements D software (Nikon).

SMILES | IC50 at 48 h [1] | Antileishmanial in vivo activity [2] | IC50 at 48 h [3] | IC50 [4] | IC50 at 72 h [5] | MitoTracker-positive cells, percentage of DMSO control (100%) ([6]; 60 min) | MitoTracker-positive cells, percentage of DMSO control (100%) ([6]; 120 min) | IC50 [7] | Time after which vacuolization and changes in cell morphology were observable [8]
CC1(C)C2CCC1(C)C(OC(=O)CCc1ccccc1)C2 (single isomer, unassigned; (-)) [Compound 2, (-)-bornyl 3-phenylpropionate] | > 100 µM | promising antileishmanial in vivo activities | > 100 µM | > 100 µM | > 100 µM | 75.2% | 60.2% | 89.1 µM | 1 h
CC1(C)C2CCC1(C)C(OC(=O)C=Cc1ccccc1)C2 (single isomer, unassigned; (-)) [Compound 1, (-)-Bornyl cinnamate] | 54.3 µM | promising antileishmanial in vivo activities | 83.1 µM | 15.6 µM | > 100 µM | 75% | 63% | 10.9 µM | 30 min
